Publication PMC5099944, “Design, synthesis and biological evaluation of hybrids of β-carboline and salicylic acid as potential anticancer and apoptosis inducing agents” (Scientific Reports, 2016)

Legend:
HCT116 cells = experiment: MTT assay, proliferation of HCT116 cells; type: cell-based; conditions: Homo sapiens, HCT-116, 48 h, read-out: In vitro cytotoxicity (IC50) HCT116
Protocol: The in vitro antitumor activities of the synthesized compounds 7a-l and 8a-l against five human cancer cells were evaluated in MTT assays using 5-fluorouracil (5-FU) and harmine as positive controls. These cells are human hepatocellular carcinoma cells (SMMC-7721 and Hep G2), human colon cancer cell lines (HCT116), human bladder carcinoma cells (EJ), and human lung cancer cells (H460).
Hepatocellular carcinoma cells (SMMC-7721 and Hep G2), Human colon cancer cell lines (HCT116), human bladder carcinoma cells (EJ) or human lung cancer cells (H460) at 10^4 cells per well were cultured in 10% FBS DMEM in 96-well flat-bottom microplates overnight. The cells were incubated in triplicate with, or without, different concentrations of each test compound for 48 h. During the last 4 h incubation, 30 μL of tetrazolium dye (MTT) solution (5 mg mL^−1) was added to each well. The resulting MTT-formazan crystals were dissolved in 150 μL DMSO, and absorbance was measured spectrophotometrically at 570 nm using an ELISA plate reader. The inhibition induced by each test compound at the indicated concentrations was expressed as a percentage. The concentration required for 50% inhibition (IC50) was calculated using the software (GraphPadPrism Version 4.03).

SMMC-7721 cells = experiment: Flow cytometry assay of cell apoptosis (FITC-Annexin V/PI); type: cell-based, human; conditions: 48 h
Protocol: To determine whether apoptosis is involved in the anti-proliferative effects of 8h, apoptosis assay was performed using SMMC-7721 cells. The cells were incubated with either vehicle alone, different concentrations of 8h (7.0 or 14 μM), or 14 μM 5-FU for 48 h, and then stained with FITC-Annexin V and propidium iodide (PI). The percentages of apoptotic SMMC-7721 cells were determined by flow cytometry analysis. In the vehicle group, the occurrence of SMMC-7721 cell apoptosis was minimal. […] Low concentration of 8h (7.0 μM) induced 46% SMMC-7721 cell apoptosis, while the higher dose (14 μM) of 8h induced 63% SMMC-7721 cell apoptosis.
Figure 4 Compound 8h induced SMMC-7721 cell apoptosis in vitro. SMMC-7721 cells were incubated with the indicated concentrations of 8h and 14 μM 5-FU for 48 h, and the cells were stained with FITC-Annexin V and PI, followed by flow cytometry analysis. (A) Flow cytometry analysis. (B) Quantitative analysis of apoptotic cells. Data are expressed as means ± SD of the percentages of apoptotic cells from three independent experiments. *P < 0.01 vs control.
SMMC-7721 cells were cultured overnight and incubated in triplicate with compound 8h (7.0 and 14 μM), 5-FU (14 μM), or vehicle for 48 h. The cells were harvested, and stained with FITC-Annexin V and PI (BioVision) at room temperature for 15 min. The percentage of apoptotic cells was determined by flow cytometry (Beckman Coulter) analysis.

With `Cc1nc(C(=O)NCCCCCNC(=O)c2ccccc2O)cc2c1[nH]c1ccccc12` [8h, N-(5-(2-Hydroxybenzamido)pentyl)-1-methyl-9H-pyrido[3,4-b]indole-3-carboxamide] the IC50 (HCT116 cells) was 8.25 µM, the “SMMC-7721 cell apoptosis (percentage of apoptotic cells)” value (SMMC-7721 cells; 7.0 μM) was 46% and the “SMMC-7721 cell apoptosis (percentage of apoptotic cells)” value (SMMC-7721 cells; 14 μM) was 63%.
